Results from patent US5556744A, “Methods and compositions for diagnosing and treating certain HIV infected patients” (The Trustees of the University of Pennsylvania, priority 1994, dated 1996).

Tests used:
Parameters in all cases: species or system human
[1] = test system: maternal HIV+ sera (antibodies); assay: RIA / ELISA binding of maternal HIV+ sera to gp120 and gp41 peptides (Example 3)
In short: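 Maternal sera, diluted 1:50 and 1:500, were bound overnight at 4°C to peptides immobilized at 10 μg/ml (pH 9.6 carbonate) and blocked with 1% BSA. Read-out was ¹²⁵I-labelled anti-human IgG counts or HRP-TMB OD450. Signal with peptide minus without was expressed relative to seronegative serum.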

[2] = test system: sera samples (antibodies); assay: ELISA peptide-binding of maternal sera, MN strain peptides (Example 7); conditions: n = 5
Protocol: This example provides additional sera screens using peptides corresponding to sequences of the MN strain. The sera samples (5 transmitters and 5 non-transmitters) were obtained from the NIH and differ from those screened in the previous studies. Peptide binding was analyzed by ELISA as described in Example 3.

[3] = test system: maternal sera (antibodies); assay: ELISA peptide-binding of maternal sera (Example 6)
In short: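 HIV-1 envelope peptides averaging 16 amino acids, covering external and transmembrane glycoprotein, were probed by ELISA. Third-trimester maternal sera, classed as transmitter or non-transmitter by child diagnosis, were each run on at least 40 peptides. Values give percent of sera binding a peptide.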

[4] = Serum No. 1, Non-Transmission Group
[5] = Serum No. 2, Non-Transmission Group
[6] = Serum No. 3, Non-Transmission Group
[7] = Serum No. 4, Transmission Group
[8] = Serum No. 5, Transmission Group
[9] = Serum No. 6, Non-Transmission Group
[10] = Serum No. 7, Non-Transmission Group
[11] = Serum No. 8, Non-Transmission Group
[12] = Serum No. 9, Non-Transmission Group
[13] = Serum No. 10, Transmission Group
[14] = Serum No. 11, Non-Transmission Group
[15] = Serum No. 12, Non-Transmission Group
[16] = Serum No. 13, Transmission Group
[17] = Serum No. 14, Transmission Group
[18] = Serum No. 15, Transmission Group
[19] = Serum No. 16, Non-Transmission Group
[20] = Serum No. 17, Non-Transmission Group
[21] = Serum No. 18, Non-Transmission Group
[22] = Serum No. 19, Transmission Group
[23] = Serum No. 20, Non-Transmission Group

Sequence | Binding of maternal HIV+ serum to peptide (sera/NHS ratio) [1, 4] | Binding of maternal HIV+ serum to peptide (sera/NHS ratio) [1, 5] | Binding of maternal HIV+ serum to peptide (sera/NHS ratio) [1, 6] | Binding of maternal HIV+ serum to peptide (sera/NHS ratio) [1, 7] | Binding of maternal HIV+ serum to peptide (sera/NHS ratio) [1, 8] | Binding of maternal HIV+ serum to peptide (sera/NHS ratio) [1, 9] | Binding of maternal HIV+ serum to peptide (sera/NHS ratio) [1, 10] | Binding of maternal HIV+ serum to peptide (sera/NHS ratio) [1, 11] | Binding of maternal HIV+ serum to peptide (sera/NHS ratio) [1, 12] | Binding of maternal HIV+ serum to peptide (sera/NHS ratio) [1, 13] | Binding of maternal HIV+ serum to peptide (sera/NHS ratio) [1, 14] | Binding of maternal HIV+ serum to peptide (sera/NHS ratio) [1, 15] | Binding of maternal HIV+ serum to peptide (sera/NHS ratio) [1, 16] | Binding of maternal HIV+ serum to peptide (sera/NHS ratio) [1, 17] | Binding of maternal HIV+ serum to peptide (sera/NHS ratio) [1, 18] | Binding of maternal HIV+ serum to peptide (sera/NHS ratio) [1, 19] | Binding of maternal HIV+ serum to peptide (sera/NHS ratio) [1, 20] | Binding of maternal HIV+ serum to peptide (sera/NHS ratio) [1, 21] | Binding of maternal HIV+ serum to peptide (sera/NHS ratio) [1, 22] | Binding of maternal HIV+ serum to peptide (sera/NHS ratio) [1, 23] | further results
LRIVFAVLSVVNRVRQGYSP [Peptide 55] | - (specific OD450 or cpm of sera sample binding to peptide divided by the specific OD450 or cpm of NHS sample binding to peptide, which value is less than 2) | - (specific OD450 or cpm of sera sample binding to peptide divided by the specific OD450 or cpm of NHS sample binding to peptide, which value is less than 2) | - (specific OD450 or cpm of sera sample binding to peptide divided by the specific OD450 or cpm of NHS sample binding to peptide, which value is less than 2) | - (specific OD450 or cpm of sera sample binding to peptide divided by the specific OD450 or cpm of NHS sample binding to peptide, which value is less than 2) | - (specific OD450 or cpm of sera sample binding to peptide divided by the specific OD450 or cpm of NHS sample binding to peptide, which value is less than 2) | - (specific OD450 or cpm of sera sample binding to peptide divided by the specific OD450 or cpm of NHS sample binding to peptide, which value is less than 2) | - (specific OD450 or cpm of sera sample binding to peptide divided by the specific OD450 or cpm of NHS sample binding to peptide, which value is less than 2) | - (specific OD450 or cpm of sera sample binding to peptide divided by the specific OD450 or cpm of NHS sample binding to peptide, which value is less than 2) | - (specific OD450 or cpm of sera sample binding to peptide divided by the specific OD450 or cpm of NHS sample binding to peptide, which value is less than 2) | - (specific OD450 or cpm of sera sample binding to peptide divided by the specific OD450 or cpm of NHS sample binding to peptide, which value is less than 2) | - (specific OD450 or cpm of sera sample binding to peptide divided by the specific OD450 or cpm of NHS sample binding to peptide, which value is less than 2) | - (specific OD450 or cpm of sera sample binding to peptide divided by the specific OD450 or cpm of NHS sample binding to peptide, which value is less than 2) | - (specific OD450 or cpm of sera sample binding to peptide divided by the specific OD450 or cpm of NHS sample binding to peptide, which value is less than 2) | - (specific OD450 or cpm of sera sample binding to peptide divided by the specific OD450 or cpm of NHS sample binding to peptide, which value is less than 2) | - (specific OD450 or cpm of sera sample binding to peptide divided by the specific OD450 or cpm of NHS sample binding to peptide, which value is less than 2) | - (specific OD450 or cpm of sera sample binding to peptide divided by the specific OD450 or cpm of NHS sample binding to peptide, which value is less than 2) | - (specific OD450 or cpm of sera sample binding to peptide divided by the specific OD450 or cpm of NHS sample binding to peptide, which value is less than 2) | - (specific OD450 or cpm of sera sample binding to peptide divided by the specific OD450 or cpm of NHS sample binding to peptide, which value is less than 2) | - (specific OD450 or cpm of sera sample binding to peptide divided by the specific OD450 or cpm of NHS sample binding to peptide, which value is less than 2) | - (specific OD450 or cpm of sera sample binding to peptide divided by the specific OD450 or cpm of NHS sample binding to peptide, which value is less than 2) | % Bound, Non-Transmitter [2]: 0%; No. of Sera Samples Bound, Non-Transmitter [2]: 0; % Bound, Transmitter [2]: 0%; No. of Sera Samples Bound, Transmitter [2]: 0
ELDKWASLWNWFNITNWLWY [Peptide 53] | - (specific OD450 or cpm of sera sample binding to peptide divided by the specific OD450 or cpm of NHS sample binding to peptide, which value is less than 2) | - (specific OD450 or cpm of sera sample binding to peptide divided by the specific OD450 or cpm of NHS sample binding to peptide, which value is less than 2) | - (specific OD450 or cpm of sera sample binding to peptide divided by the specific OD450 or cpm of NHS sample binding to peptide, which value is less than 2) | - (specific OD450 or cpm of sera sample binding to peptide divided by the specific OD450 or cpm of NHS sample binding to peptide, which value is less than 2) | - (specific OD450 or cpm of sera sample binding to peptide divided by the specific OD450 or cpm of NHS sample binding to peptide, which value is less than 2) | - (specific OD450 or cpm of sera sample binding to peptide divided by the specific OD450 or cpm of NHS sample binding to peptide, which value is less than 2) | ++ (which value is greater than 3) | - (specific OD450 or cpm of sera sample binding to peptide divided by the specific OD450 or cpm of NHS sample binding to peptide, which value is less than 2) | - (specific OD450 or cpm of sera sample binding to peptide divided by the specific OD450 or cpm of NHS sample binding to peptide, which value is less than 2) | - (specific OD450 or cpm of sera sample binding to peptide divided by the specific OD450 or cpm of NHS sample binding to peptide, which value is less than 2) | - (specific OD450 or cpm of sera sample binding to peptide divided by the specific OD450 or cpm of NHS sample binding to peptide, which value is less than 2) | - (specific OD450 or cpm of sera sample binding to peptide divided by the specific OD450 or cpm of NHS sample binding to peptide, which value is less than 2) | - (specific OD450 or cpm of sera sample binding to peptide divided by the specific OD450 or cpm of NHS sample binding to peptide, which value is less than 2) | - (specific OD450 or cpm of sera sample binding to peptide divided by the specific OD450 or cpm of NHS sample binding to peptide, which value is less than 2) | - (specific OD450 or cpm of sera sample binding to peptide divided by the specific OD450 or cpm of NHS sample binding to peptide, which value is less than 2) | - (specific OD450 or cpm of sera sample binding to peptide divided by the specific OD450 or cpm of NHS sample binding to peptide, which value is less than 2) | + (which value is between 2 to 3) | - (specific OD450 or cpm of sera sample binding to peptide divided by the specific OD450 or cpm of NHS sample binding to peptide, which value is less than 2) | - (specific OD450 or cpm of sera sample binding to peptide divided by the specific OD450 or cpm of NHS sample binding to peptide, which value is less than 2) | - (specific OD450 or cpm of sera sample binding to peptide divided by the specific OD450 or cpm of NHS sample binding to peptide, which value is less than 2) | % Bound, Non-Transmitter [2]: 0%; No. of Sera Samples Bound, Non-Transmitter [2]: 0; % Bound, Transmitter [2]: 0%; No. of Sera Samples Bound, Transmitter [2]: 0; Number of Non-Transmitters which bound to peptide ([3]; Non-Transmitters, N = 12): 0; Percent of Non-Transmitters which bound to peptide ([3]; Non-Transmitters, N = 12): 0%; Number of Transmitters which bound to peptide ([3]; Transmitters, N = 4): 0; Percent of Transmitters which bound to peptide ([3]; Transmitters, N = 4): 0%
